What was measured:
[1] = molecular target: T1, Keap1/NRF2 (Homo sapiens, UniProt Q14145); experiment: NRF2-Keap1 FP Assay (Kelch domain (321-609) of Keap1, TAMRA-labeled NRF2 ETGE peptide); type: binding; conditions: Keap1 (321-609) 20 nM, Tamra labeled peptide 8 nM
T1 construct: Keap1 (321-609) is diluted to 40 nM (2×) in 1× assay buffer
Procedure, shortened: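 Fluorescence polarization competition: Keap1 Kelch (321-609) at 20 nM final and TAMRA-ETGE 16-mer peptide at 8 nM final with 3-fold compound dilutions, 1 h room temperature in Tris pH 8.0 buffer (NaCl, MgCl2, DTT, CHAPS, BSA). mP normalized to protein+peptide and peptide-alone controls; pIC50 by four-parameter fit.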

[2] = molecular target: T2, NRF2/Keap1 (Homo sapiens, UniProt Q14145); experiment: NRF2-Keap1 TR-FRET Low Protein Assay (full length NRF2 and full length Keap1); type: binding; conditions: low protein: 1.25 nM Keap1 FlagHis, 2.5 nM biotin-NRF2 added
T2 construct: full length NRF2 protein and full length Keap1 protein (Keap1 exists a dimer) are used
T2 sequence (Q14145 whole entry): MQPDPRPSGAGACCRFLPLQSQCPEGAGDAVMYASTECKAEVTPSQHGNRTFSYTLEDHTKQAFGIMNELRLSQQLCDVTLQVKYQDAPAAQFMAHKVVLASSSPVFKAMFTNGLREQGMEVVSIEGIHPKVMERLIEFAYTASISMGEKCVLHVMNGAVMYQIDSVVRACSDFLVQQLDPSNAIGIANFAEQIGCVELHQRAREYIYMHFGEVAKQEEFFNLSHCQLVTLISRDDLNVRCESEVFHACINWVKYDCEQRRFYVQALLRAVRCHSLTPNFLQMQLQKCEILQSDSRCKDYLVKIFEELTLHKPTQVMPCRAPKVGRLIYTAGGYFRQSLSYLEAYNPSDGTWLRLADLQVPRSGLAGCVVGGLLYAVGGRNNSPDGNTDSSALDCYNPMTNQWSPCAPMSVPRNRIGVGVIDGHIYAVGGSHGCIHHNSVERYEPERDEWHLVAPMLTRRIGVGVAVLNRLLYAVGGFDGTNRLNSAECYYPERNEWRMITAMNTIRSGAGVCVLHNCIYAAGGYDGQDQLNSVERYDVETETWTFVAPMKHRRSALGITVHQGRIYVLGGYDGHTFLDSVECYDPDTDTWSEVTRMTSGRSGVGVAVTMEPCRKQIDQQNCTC
Excerpt: In the NRF2-Keap1 TR-FRET (time-resolved fluorescence resonance energy transfer) low protein assay, full length NRF2 protein and full length Keap1 protein (Keap1 exists a dimer) are used. The assay detects a compound's ability to displace the binding of Keap1 FlagHis with biotinylated Avi-NRF2 protein. Biotin-NRF2 binds to streptavidin-europium (a component of the detection mix) and Keap1 FlagHis is recognized by anti-Flag APC (allophycocyanin) antibody (also a component of the detection mix). If binding occurs between the two proteins, there will be an energy transfer from the Eu+3 (donor) at 615 nm to the APC (acceptor) at 665 nm. A potential NRF2 inhibitor will cause a reduction in the TR-FRET signal by interfering with the binding of Keap1 to NRF2.
Ten nanoliters of 100× compound dose response curves (serial 3-fold dilutions) in DMSO are stamped using an Echo liquid handling system (Labcyte) into 384-well, low volume, black assay plates (Greiner, #784076), with DMSO in columns 6 and 18. An additional 90 nl DMSO is added to each well, to bring the total volume to 100 nl per well. The top concentration of compound is located in columns 1 and 13, with the serial dilutions going across the row. All reagents are diluted in assay buffer (50 mM Tris, pH 8.0, 5 mM MgCl2, 100 mM NaCl, 0.005% BSA, 1 mM DTT, and 2 mM CHAPS. The BSA, DTT, and CHAPS are added to the assay buffer on the day of assay. Using a Multidrop Combi (Thermo Electron Corporation) equipped with a metal tip dispenser, 5 ul of 1.25 nM Keap1 FlagHis protein is added to all wells of the compound plate, with the exception of the wells in column 18. Wells in column 18 receive 5 ul of assay buffer instead. Plates are centrifuged at 500 rpm for 1 minute, covered with a plate lid, and incubated at 37° C. for 2.25 hours. Plates are then removed from the incubator and allowed to cool to RT for 15 minutes. Five microliters of 2.5 nM biotin-NRF2 protein is then added to all wells of the plates and the plates are spun at 500 rpm for 1 minute, followed by incubating at 4° C. for 1.25 hours. The plates are then allowed to warm to RT for 15 minutes, followed by the addition of 10 ul of detection mix (1 nM Streptavidin Eu+ W1024 and 5 ug/ml mouse anti-DYKDDDDK IgG conjugated to SureLight APC antibody; both from Columbia Biosciences) to all wells. Plates are spun at 500 rpm for 1 minute, incubated for 1 hour at RT, and read on an Envision plate reader using a 320 nm excitation filter and 615 nm and 665 nm emission filters. Compound response (% inhibition) and potency (pIC50) are calculated based on the ratio of the two emissions (665 nm/615 nm) and then the transformed data is normalized against controls in the assay (control 1=1% DMSO in the presence of NRF2 and Keap1 protein and control 2=1% DMSO in the presence of only the NRF2 protein). Data analysis is handled using the software package Abase XE (Surrey, United Kingdom). The % inhibition values are calculated from the ratio (transformed) data by the equation: 100−(100*(compound response-average control 2)/(average control 1−average control 2)). For calculation of pIC50s, Abase XE uses a four parameter equation.

T1 sequence (Q14145 321-609): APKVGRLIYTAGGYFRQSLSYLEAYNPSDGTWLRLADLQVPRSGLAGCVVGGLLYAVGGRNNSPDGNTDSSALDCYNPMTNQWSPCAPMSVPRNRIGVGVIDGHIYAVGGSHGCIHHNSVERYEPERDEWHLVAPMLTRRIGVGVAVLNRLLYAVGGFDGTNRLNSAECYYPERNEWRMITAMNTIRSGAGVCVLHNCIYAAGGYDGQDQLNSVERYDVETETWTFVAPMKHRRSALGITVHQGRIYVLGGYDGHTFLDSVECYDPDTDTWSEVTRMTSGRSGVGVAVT

Row | Structure (SMILES) | IC50 [1] [nM] | IC50 [2] [nM]
1 | CCOC[C@@H]1CCCN1C(=O)C1CCCC(c2cccc(-n3ncc(C(=O)O)c3C3CC3)c2)C1 (single isomer, unassigned) [Example 18g] | 10 to 100 | < 10
2 | Cn1cc(C2CC2c2c(C(=O)O)cnn2-c2cccc([C@@H]3CCC[C@H](n4ncc5c4C(C)(C)CC5)C3)c2)nn1 (stereo partly drawn) [Example 39, 1-(3-((1R,3S)-3-(6,6-Dimethyl-5,6-dihydrocyclopenta[c]pyrazol-1(4H)-yl)cyclohexyl)phenyl)-5-(2-(1-methyl-1H-1,2,3-triazol-4-yl)cyclopropyl)-1H-pyrazole-4-carboxylic Acid] | 10 to 100 | < 10
3 | Cn1cc(C2CC2c2c(C(=O)O)cnn2-c2cccc([C@H]3CCC[C@H](n4ncc5c4C(C)(C)CC5)C3)c2)nn1 (stereo partly drawn) [Example 40, 1-(3-((1,3-trans)-3-(6,6-Dimethyl-5,6-dihydrocyclopenta[c]pyrazol-1(4H)-yl)cyclohexyl)phenyl)-5-(2-(1-methyl-1H-1,2,3-triazol-4-yl)cyclopropyl)-1H-pyrazole-4-carboxylic Acid] | 10 to 100 | 10 to 100
4 | CC1(C)CCc2cnn([C@@H]3CCC[C@@H](c4cccc(-n5ncc(C(=O)O)c5C5CC5)c4)C3)c21 (racemic) [Example 23, 5-Cyclopropyl-1-(3-(t-3-(6,6-dimethyl-5,6-dihydrocyclopenta[c]pyrazol-1(4H)-yl)cyclohexyl)phenyl)-1H-pyrazole-4-carboxylic Acid] | 1000 to 10000 | 1000 to 10000
5 | CCCC[C@@H]1CCCN1C(=O)[C@H]1CCC[C@@H](c2cccc(-n3ncc(C(=O)O)c3C3CC3)c2)C1 [Example 17f, 1-{3-[(1R,3S)-3-[(2R)-2-Butylpyrrolidine-1-carbonyl]cyclohexyl]phenyl}-5-cyclopropyl-1H-pyrazole-4-carboxylic Acid] | 10 to 100 | < 10
6 | CCCCC1CCCN1C(=O)C1CCCC(c2cccc(-n3ncc(C(=O)O)c3C3CC3c3cn(C)nn3)c2)C1 (stereo not drawn) [Example 42, 1-(3-(3-(2-Butylpyrrolidine-1-carbonyl)cyclohexyl)phenyl)-5-(2-(1-methyl-1H-1,2,3-triazol-4-yl)cyclopropyl)-1H-pyrazole-4-carboxylic Acid] | 10 to 100 | < 10
7 | O=C(O)c1cnn(-c2cccc(C3=CC(C(=O)N4CCCCCC4)CCC3)c2)c1C1CC1 (stereo not drawn) [Example 19, 1-(5′-(Azepane-1-carbonyl)-2′,3′,4′,5′-tetrahydro-[1,1′-biphenyl]-3-yl)-5-cyclopropyl-1H-pyrazole-4-carboxylic Acid] | 100 to 1000 | 100 to 1000
8 | O=C(O)c1cnn(-c2cccc(C3CCCC(C(=O)N4CCCC4C4CC4)C3)c2)c1C1CC1 (racemic) [Example 12, 5-cyclopropyl-1-{3-[3-(2-cyclopropylpyrrolidine-1-carbonyl)cyclohexyl]phenyl}-1H-pyrazole-4-carboxylic Acid] | 10 to 100 | 10 to 100
9 | CC(C)CCC1CCCN1C(=O)C1CCCC(c2cccc(-n3ncc(C(=O)O)c3C3CC3)c2)C1 (racemic) [Example 11, 5-Cyclopropyl-1-(3-{3-[2-(3-methylbutyl)pyrrolidine-1-carbonyl]cyclohexyl}phenyl)-1H-pyrazole-4-carboxylic Acid] | 10 to 100 | 10 to 100
10 | CCCCC1CCc2cnn([C@@H]3CCC[C@@H](c4cccc(-n5ncc(C(=O)O)c5C5CC5)c4)C3)c21 (stereo partly drawn) [Example 38, 1-(3-((1,3-trans)-3-(6-Butyl-5,6-dihydrocyclopenta[c]pyrazol-1(4H)-yl)cyclohexyl)phenyl)-5-cyclopropyl-1H-pyrazole-4-carboxylic Acid] | 1000 to 10000 | 10000 to 100000
11 | CCCCC1CCCC1N(C)C(=O)C1CCCC(c2cccc(-n3ncc(C(=O)O)c3C3CC3)c2)C1 (stereo not drawn) [Example 41, 1-(3-(3-((2-Butylcyclopentyl)(methyl)carbamoyl)cyclohexyl)phenyl)-5-cyclopropyl-1H-pyrazole-4-carboxylic Acid] | 100 to 1000 | 100 to 1000
12 | CCCCC1CCCN1C(=O)C1CCCC(c2cccc(-n3ncc(C(=O)O)c3C3CC3)c2)C1 (racemic) [Example 8c, 1-{3-[3-(2-Butylpyrrolidine-1-carbonyl)cyclohexyl]phenyl}-5-cyclopropyl-1H-pyrazole-4-carboxylic Acid] | 10 to 100 | 10 to 100

Reference: patent US10351530B2, “Arylcyclohexyl pyrazoles as NRF2 regulators” (GlaxoSmithKline Intellectual Property Development Limited, priority 2015, dated 2019)
